Assays:
Bcl-xL = target: T1, Bcl-xL (Homo sapiens, UniProt Q07817); experiment: Protein degradation assay (western blot) in IR-SC WI38 cells; type: cell-based; conditions: increasing concentrations for 18 hours (FIG. 3A); fixed concentration for increasing times (FIG. 3B)
T1 construct: endogenous in cells; host or cells: IR-SC WI38 cells
Method: IR-SC WI38 cells were incubated with vehicle or increasing concentrations of XZ-14439 for 18 hours at increasing […] (FIG. 3A) and at a fixed concentration of XZ-14439 for increasing times (FIG. 3B). The cells were digested with 0.25% trypsin and 1 mM EDTA, and harvested in RIPA lysis buffer with 1% Phosphatase Inhibitor Cocktail 3 and 1% Protease Inhibitor Cocktail. An equal amount of protein (15-30 μg/lane) from each cell extract was resolved on a 12% SDS-PAGE gel. Proteins were blotted onto a NOVEX PVDF membrane by electrophoresis. The membranes were blocked with TBS-T blocking buffer (5% nonfat milk in 25 mM Tris-HCL, pH 7.4; 3 mM KCl; […] NaCl; and 0.05% Tween) and probed with primary antibodies (at a predetermined optimal concentration) overnight at 4° C. or for 1 hour at room temperature. […] After three washes with TBS-T, the proteins of interest were detected with ECL Western Blotting Detection Reagents and recorded with autoradiography (Pierce Biotech, Rockford, Ill., USA). […]
IR-SC WI38 (FIG. 4A) and RS4; 11 (FIG. 4B) cells were incubated with vehicle or increasing concentrations of compounds of Formula (I) or Formula (II) for 6 or 16 hours, at 1 μM (FIG. 4A) and 100 nm (FIG. 4B), respectively. […] After three washes with TBS-T, the proteins of interest were detected with ECL Western Blotting Detection Reagents and recorded with autoradiography. […]

osteoclast progenitors = experiment: Five-day administration to aged mice: osteoclast differentiation from bone marrow macrophages; type: in vivo, 24-month-old female mice; conditions: bone marrow macrophages from treated mice, cultured with RANKL and M-CSF for 5 days, FIG. 15A and 15B
Method: In summary, short-term administration of ABT-263 or Bcl-PROTAC to aged mice decreases senescent osteoprogenitors and osteocytes, as well as the SASP and osteoclastogenesis.
Bone marrow cells were obtained by flushing the tibiae and femurs from the 24 month-old female mice with α-MEM medium (Invitrogen). After the red blood cells were removed with ACK buffer (0.01 mM EDTA, 0.011 M KHCO3, and 0.155 M NH4Cl, pH 7.3), we suspended the cells in α-MEM complete media containing 10% (v/v) fetal bovine serum, 100 U ml-1 penicillin, and 100 μg ml-1 streptomycin and incubated the cells for 24 h in the presence of 10 ng ml-1 M-CSF. We collected the non-adherent cells and cultured with 30 ng ml-1 M-CSF for 3 days to generate bone marrow-derived macrophages. […] We fixed the osteoclast cultures with 10% neutral buffered formalin for 15 min and stained for tartrate-resistant acid phosphatase (TRAP) using the Leukocyte Acid Phosphatase Assay Kit, following the manufacturer's instructions (Sigma-Aldrich). For all assays we plated cells in triplicate.

senescent osteocytes = experiment: Five-day administration to aged mice: western blot and qPCR of osteocyte-enriched femoral bone shafts; type: in vivo, 24-month-old female mice
Method: ABT-263 or its derivative Bcl-PROTAC (or vehicles) were administered by daily i.p. injections for 5 days to 24-month-old female mice. […] We have shown that γ-H2AX, p16, GATA4, RANKL and MMP-13 increase, while OPG and Wnt10b decrease with age in bone of female and male mice (Piemontese et al., 2017 JCI Insight).
Osteocyte-enriched femoral cortical bone was prepared by removing the ends, flushing the bone marrow by centrifugation, and removal of surface cells by scraping with a scalpel. Bone fragments were immediately frozen in liquid nitrogen and pulverized. Proteins were extracted with a buffer containing 20 mM Tris-HCL, 150 mM NaCl, 1% Triton X-100, protease inhibitor mixture, and phosphatase inhibitor cocktail (Sigma-Aldrich) on ice for 30 min and then keep on −80° C. for overnight. The protein concentration of the bone extract was determined using the DC Protein Assay Kit (Bio-Rad). The extracted protein ([…] per sample) was subjected to 15% SDS-PAGE gels and transferred electrophoretically onto PVDF membranes. The membranes were blocked in 5% fat-free milk/Tris-buffered saline for 120 min and incubate with each primary antibody followed by secondary antibodies conjugated with horseradish peroxidase. […] Bound antibodies were detected with ECL reagents (Millipore), and imaged and quantified with a VersaDoc™ imaging system (Bio-Rad).
(§1) Total RNA was extracted with Ultraspec (Biotecx Laboratories) and reverse-transcribed using the High-Capacity cDNA Archive Kit (Applied Biosystems) according to the manufacturer's instructions. TaqMan quantitative real-time PCR was performed using the following primers from Applied Biosystems: Rankl (Mm00441908_m1); Mmp-13 (Mm00439491_m1); OPG (Mm00435452_m1); Wnt10b (Mm00442104_m1); IL-1α (Mm99999060_m1); Sdf-1 (Mm00445553_m1); p21 (Mm00432448_m1). Target gene expression was calculated by normalizing to the housekeeping gene ribosomal protein S2 (Mm00475528_m1) using the ΔCt method (Livak and Schmittgen, 2001).

senescent cells [1] = experiment: Cisplatin-induced peripheral neuropathy (CIPN) in p16-3MR transgenic mice, Von Frey assay and Hot Plate Analgesia Meter; type: in vivo; conditions: GCV 25 mg/kg/day or ABT263 50 mg/kg/day i.p., 5 days per cycle, 2 cycles, FIG. 8-11
Method: (§2) CIPN was induced in young adult male and female p16-3MR mice by intraperitoneal (i.p.) injection of cisplatin (Lake Zurich, Ill., USA) at 2.3 mg/kg/d for 5 days per cycle for 2 cycles with an interval of 5 days between the cycles. The induction of CIPN was measured by analyzing the mechanical sensitivity using the Von Frey assay the day before Cisplatin treatment and on various day after Cisplatin treatment. N=5-6 mice per group.
Mice were treated as described in FIG. 8. The induction of CIPN was measured by analyzing the sensitivity to thermal allodynia using the Hot Plate Analgesia Meter on various day after Cisplatin treatment. N=5-6 mice per group.
To determine the effect of senescent cells on the induction of CIPN, cisplatin-treated mice were administered with vehicle, ganciclovir (GCV) at 25 mg/kg/day for 5 days per cycle for 2 cycles with an interval of 17 days between the cycles, or ABT263 at 50 mg/kg/day for 5 days per cycle for 2 cycles with an interval of 17 days between the cycles by i.p. injection at the indicated times after cisplatin treatment. […] The induction of CIPN was measured by analyzing the mechanical sensitivity using the Von Frey assay (FIG. 8 and FIG. 9) and by analyzing the sensitivity to thermal allodynia using the Hot Plate Analgesia Meter (FIG. 10 and FIG. 11) the day before Cisplatin treatment and on various day after Cisplatin treatment.

platelets = conditions: administration to subjects; platelets rely on Bcl-xl for survival; cited from earlier work
senescent cells [2] = experiment: Cisplatin-induced peripheral neuropathy (CIPN) in C57BL/6 mice, Von Frey assay and Hot Plate Analgesia Meter; type: in vivo; conditions: 50 mg/kg/day i.p., 5 days per cycle, 2 cycles, mechanical sensitivity and thermal allodynia, FIG. 5-7
Method: as §2, with “C57BL/6” for “p16-3MR”, “Cisplatin” for “cisplatin”, “treatment” for “treatment. N=5-6 mice per group.”
Mice were treated as described in FIG. 1. The induction of CIPN was measured by analyzing the sensitivity to thermal allodynia using the Hot Plate Analgesia Meter on various day after Cisplatin treatment. N=10 for control group and 5 for Cisplatin-treated groups. ***p<0.001 vs. Control.
To determine the effect of senescent cells on the induction of CIPN, Cisplatin-treated mice were administered with vehicle or ABT263 at 50 mg/kg/day for 5 days per cycle for 2 cycles with an interval of 17 days between the cycles by i.p. injection at the indicated times after Cisplatin treatment. The induction of CIPN was measured by analyzing the mechanical sensitivity using the Von Frey assay (FIG. 5 and FIG. 6) and by analyzing the sensitivity to thermal allodynia using the Hot Plate Analgesia Meter (FIG. 7) the day before Cisplatin treatment and on various day after Cisplatin treatment.

[3] = system: bone marrow stromal cells; experiment: Five-day administration to aged mice: ex vivo bone marrow stromal cell cultures (qPCR, osteoblast and adipocyte differentiation); type: in vivo, 24-month-old female mice
Excerpt: We also isolated bone marrow stromal cells from mice treated with vehicle or the senolytics and cultured them for 5 days.
Conversely, bone marrow cells from the mice treated with senolytics cultured in the presence of adipogenic medium had decreased adipogenic potential (FIG. 14C).
as §1
Total bone marrow cells pooled from 3-5 mice from each group were cultured with 20% FBS, 1% PSG and […] of ascorbic acid in 10-cm culture dishes for 5 days. Half of the medium was replaced every 3 days. Bone marrow-derived osteoprogenitor cells were re-plated into 12-well plates and cultured with […] of ascorbic acid and 10 mM b-glycerophosphate for 21 days. Mineralized matrix was stained with 40 mM Alizarin Red solution.
Bone marrow-derived stromal cells were cultured to 70% confluence, and the media supplemented with rosiglitazone (5 nM/m1) or with 3.3% BSA in PBS as vehicle control. Medium containing ligand was changed every 2 d for 11 d. Cells were fixed in 10% formalin in PBS, rinsed, and stained for 30 min with 0.15% Oil Red 0 (Sigma) in a 55:45 mix of isopropanol and water. Cells were counterstained with 0.5% methyl green (Fisher Scientific, Fairlawn, N.J.) in 0.1 M sodium acetate, pH4. Oil Red 0 staining was quantified after extraction of the dye with 1 ml isopropanol and absorbance determination at 490 nm.

[4] = femoral extracts, qPCR, FIG. 12B
[5] = bone marrow-derived stromal cells from treated mice, ex vivo culture, FIG. 13

T1 sequence (Q07817 whole entry): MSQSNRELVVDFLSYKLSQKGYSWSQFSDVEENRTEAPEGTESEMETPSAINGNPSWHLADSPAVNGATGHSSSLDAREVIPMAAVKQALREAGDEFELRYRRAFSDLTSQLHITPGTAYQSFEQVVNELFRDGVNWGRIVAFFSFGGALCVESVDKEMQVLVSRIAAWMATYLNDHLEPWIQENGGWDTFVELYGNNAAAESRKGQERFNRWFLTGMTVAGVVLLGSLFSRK

Compound	Bcl-xL depletion in IR-SC WI38 cells, dose and time dependence (Bcl-xL)	Osteoclastogenic potential (TRAP-positive multinucleated cells) (osteoclast progenitors)	mRNA for OPG (senescent osteocytes; [4])	mRNA for RANKL and MMP13 (senescent osteocytes; [4])	Markers of cell senescence: protein levels of γ-H2AX, p16 and GATA4 (senescent osteocytes; osteocyte-enriched femoral bone shafts, daily i.p. for 5 days, western blot, FIG. 12A)	Reversal of cisplatin-induced peripheral neuropathy (senescent cells [1])	Thrombocytopenia (platelets)	Reversal of cisplatin-induced peripheral neuropathy (senescent cells [2])	Expression of p21 [3, 5]	mRNA levels of RANKL, MMP-13, IL-1a and SDF-1 [3, 5]	Osteoblastogenic potential (Alizarin Red staining) ([3]; stromal cells from treated mice, 21 days in osteogenic medium, FIG. 14A and 14B)
CC1(C)CCC(c2ccc(Cl)cc2)=C(CN2CCN(c3ccc(C(=O)NS(=O)(=O)c4ccc(N[C@H](CCN5CCN(C(=O)CCCn6cc(COCCOCCOCCNc7cccc8c7C(=O)N(C7CCC(=O)NC7=O)C8=O)nn6)CC5)CSc5ccccc5)c(S(=O)(=O)C(F)(F)F)c4)cc3)CC2)C1 (stereo partly drawn) [XZ-14439, 4-(4-((4′-chloro-4,4-dimethyl-3,4,5,6-tetrahydro-[1,1′-biphenyl]-2-yl)methyl)piperazin-1-yl)-N-((4-(((2R)-4-(4-(4-(4-((2-(2-(2-((2-(2,6-dioxopiperidin-3-yl)-1,3-dioxoisoindolin-4-yl)amino)ethoxy)ethoxy)ethoxy)methyl)-1H-1,2,3-triazol-1-yl)butanoyl)piperazin-1-yl)-1-(phenylthio)butan-2-yl)amino)-3-((trifluoromethyl)sulfonyl)phenyl)sulfonyl)benzamide]	depletes Bcl-xL	–	–	–	–	–	–	–	–	–	–
CC1(C)CCC(c2ccc(Cl)cc2)=C(CN2CCN(c3ccc(C(=O)NS(=O)(=O)c4ccc(N[C@H](CCN5CCOCC5)CSc5ccccc5)c(S(=O)(=O)C(F)(F)F)c4)cc3)CC2)C1 [ABT-263, (R)-4-(4-((4′-chloro-4,4-dimethyl-3,4,5,6-tetrahydro-[1,1′-biphenyl]-2-yl-)methyl)piperazin-1-yl)-N-((4-((4-morpholino-1-(phenylthio)butan-2-yl)amin-o)-3-((trifluoromethyl)sulfonyl)phenyl)sulfonyl)benzamide]	–	decreased osteoclastogenic potential	increased the mRNA for OPG	decreased the mRNA for RANKL and MMP13	decreased marker of cell senescence	reversed cisplatin-induced peripheral neuropathy (CIPN)	cause thrombocytopenia	reversed Cisplatin-induced peripheral neuropathy (CIPN)	decreased expression of p21	decreased mRNA levels of RANKL and MMP-13, as well as IL-1a and SDF-1	promotes osteoblastogenesis
